In the NIST ThermoML archive (doi:10.1007/s10765-019-2537-x):
Numbers after ± are expanded uncertainties.

Conditions: Liquid, transient hot wire

Cc1ccccc1 [toluene]
Conditions | thermal conductivity [W/m/K]
317.39 K, 5130 kPa | 0.1266 ± 0.04
317.42 K, 1050 kPa | 0.1251 ± 0.04
317.42 K, 10550 kPa | 0.1277 ± 0.04
317.46 K, 15330 kPa | 0.1292 ± 0.04
317.52 K, 20330 kPa | 0.133 ± 0.04
336.3 K, 20300 kPa | 0.1267 ± 0.04
336.32 K, 10150 kPa | 0.1229 ± 0.04
336.34 K, 15140 kPa | 0.1245 ± 0.04
336.39 K, 5020 kPa | 0.1205 ± 0.04
336.42 K, 1030 kPa | 0.1194 ± 0.04
356.27 K, 15170 kPa | 0.1205 ± 0.04
356.27 K, 20040 kPa | 0.1218 ± 0.04
356.36 K, 10440 kPa | 0.1184 ± 0.04
356.41 K, 1160 kPa | 0.1131 ± 0.04
356.43 K, 5170 kPa | 0.1166 ± 0.04
376.88 K, 20030 kPa | 0.1185 ± 0.04
376.95 K, 5200 kPa | 0.1108 ± 0.04
376.95 K, 10160 kPa | 0.1124 ± 0.04
376.95 K, 15270 kPa | 0.1147 ± 0.04
377.07 K, 1080 kPa | 0.1096 ± 0.04
395.96 K, 15140 kPa | 0.1121 ± 0.04
396.23 K, 10180 kPa | 0.1091 ± 0.04
396.26 K, 20010 kPa | 0.1141 ± 0.04
396.28 K, 5150 kPa | 0.1072 ± 0.04
396.32 K, 1030 kPa | 0.1059 ± 0.04
416.29 K, 20250 kPa | 0.1104 ± 0.04
416.33 K, 15150 kPa | 0.1066 ± 0.04
416.68 K, 5290 kPa | 0.1033 ± 0.04
416.72 K, 10280 kPa | 0.1054 ± 0.04
416.75 K, 1040 kPa | 0.1013 ± 0.04
436.23 K, 20100 kPa | 0.1051 ± 0.04
436.34 K, 15130 kPa | 0.1036 ± 0.04
436.37 K, 1020 kPa | 0.0972 ± 0.04
436.48 K, 10230 kPa | 0.1026 ± 0.04
436.52 K, 5170 kPa | 0.0992 ± 0.04
456.02 K, 20030 kPa | 0.1029 ± 0.04
456.04 K, 5400 kPa | 0.0956 ± 0.04
456.22 K, 15290 kPa | 0.1003 ± 0.04
456.24 K, 10330 kPa | 0.099 ± 0.04
456.26 K, 1140 kPa | 0.0928 ± 0.04
476.35 K, 10170 kPa | 0.0941 ± 0.04
476.38 K, 20260 kPa | 0.0994 ± 0.04
476.61 K, 1110 kPa | 0.0901 ± 0.04
476.73 K, 5010 kPa | 0.0914 ± 0.04
476.75 K, 15330 kPa | 0.0965 ± 0.04
496.03 K, 20300 kPa | 0.0962 ± 0.04
496.15 K, 2850 kPa | 0.0875 ± 0.04
496.27 K, 15290 kPa | 0.0945 ± 0.04
496.31 K, 10420 kPa | 0.0928 ± 0.04
496.49 K, 5210 kPa | 0.087 ± 0.04
516.06 K, 20190 kPa | 0.094 ± 0.04
516.2 K, 15360 kPa | 0.0916 ± 0.04
516.21 K, 10220 kPa | 0.0906 ± 0.04
516.4 K, 5090 kPa | 0.0862 ± 0.04
536.3 K, 10150 kPa | 0.0873 ± 0.04
536.39 K, 15400 kPa | 0.0897 ± 0.04
536.56 K, 20330 kPa | 0.0921 ± 0.04
556.53 K, 15430 kPa | 0.0908 ± 0.04
556.59 K, 20100 kPa | 0.0927 ± 0.04
556.68 K, 10050 kPa | 0.0869 ± 0.04
576.72 K, 20150 kPa | 0.0885 ± 0.04
